Test results published in US11945825B2, “Compositions and methods for regulating glucose homeostasis and insulin action” (UNIVERSITY OF VIRGINIA PATENT FOUNDATION, priority 2012, dated 2024).

Legend:
[1] = patients consuming ˜300 mg/d, over several months, no change in food intake; cited from earlier work
[2] = mouse, in vivo; cited from earlier work
L6 myoblasts [3] = assay: Oxygen consumption rate dose response (Seahorse XF24); type: cell-based, rat
[4] = tested on: AMP-activated protein kinase; settings: L6 cells, 40 min
L6 myoblasts [5] = settings: 1 μM uncoupler, 1 μM oligomycin
[6] = tested on: isolated mouse liver mitochondria; settings: 5 μM
L6 cells [7] = tested on: L6 cells
L6 myotubes = settings: 5 min treatment
L6 cells [8] = settings: 20 μM, 20 min

Row | Structure (SMILES) | average weight loss [1] [pounds per week] | metabolic effects in mice [2] | shape of oxygen consumption dose response curve (L6 myoblasts [3]) | AMPK activation [4] | respiration in the presence of oligomycin (L6 myoblasts [5]) | electron donation to the ETC ([6]; after 2 μM rotenone) | effect on complex II (succinate-stimulated respiration) ([6]; succinate added at 20 min) | plasma membrane potential (L6 cells [7]; current clamp, resting membrane potential, 10 μM) | current under voltage clamp (L6 cells [7]; holding potential −70 mV, 1 μM and 10 μM) | plasma membrane conductance (L6 cells [7]; voltage clamp, −130 mV to −60 mV) | intracellular acidification relative to BAM15 (L6 myotubes) [fold] | cellular ATP levels (L6 cells [8])
1 | O=[N+]([O-])c1ccc(O)c([N+](=O)[O-])c1 [DNP, 2,4-dinitrophenol] | 1.5 | improved serological glucose, triglyceride, and insulin levels, as well as decreased oxidative damage, reduced body weight, and increased longevity |  |  |  |  |  |  |  |  |  | 
2 | N#CC(C#N)=NNc1ccc(OC(F)(F)F)cc1 [FCCP, carbonyl cyanide p-trifluoromethoxyphenylhydrazone] |  |  | inverted bell shaped curve of effectiveness | activation of AMP-activated protein kinase | increase oxygen consumption in the presence of oligomycin | do not donate electrons to the ETC downstream of complex I | do not affect complex II | reversible and repeatable plasma membrane depolarization | induced an inward current | increase in conductance | 2 | loss of cellular ATP
